Experimental data taken from the supplement of paper PMC11061612.

Assays:
Crizotinib = compound: C[C@@H](Oc1cc(-c2cnn(C3CCNCC3)c2)cnc1N)c1c(Cl)ccc(F)c1Cl [Crizotinib]; settings: max 10 µM
How it was run: (§1)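 Plates with 1536 wells received cancer cell lines in 7.5 μl of DMEM/F12 or RPMI containing 10% FBS. After 24 hours at 37°C and 5% CO2, cells were dosed for 72 hours with final DMSO typically 0.2%, and viability was read by CellTiter-Glo 2.0 luminescence scaled between blank-well and DMSO-well means. The single-agent IC50 was taken from a logistic fit of the dose responses made with a non-linear mixed effects model, that logistic curve having two parameters.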

Lapatinib = compound: CS(=O)(=O)CCNCc1ccc(-c2ccc3ncnc(Nc4ccc(OCc5cccc(F)c5)c(Cl)c4)c3c2)o1 [Lapatinib]; settings: max 10 µM
How it was run: as §1

AZD1390 = compound: CC(C)n1c(=O)n(C)c2cnc3cc(F)c(-c4ccc(OCCCN5CCCCC5)nc4)cc3c21 [AZD1390]; settings: max 0.3 µM
How it was run: as §1

Gefitinib = compound: COc1cc2ncnc(Nc3ccc(F)c(Cl)c3)c2cc1OCCCN1CCOCC1 [Gefitinib]; settings: max 10 µM
How it was run: as §1

AZD6738 = compound: C[C@@H]1COCCN1C2=NC(=NC(=C2)C3(CC3)[S@](=N)(=O)C)C4=C5C=CNC5=NC=C4 [AZD6738]; settings: max 10 µM
How it was run: as §1

AZD5363 = compound: C1CN(CCC1(C(=O)N[C@@H](CCO)C2=CC=C(C=C2)Cl)N)C3=NC=NC4=C3C=CN4 [AZD5363]; settings: max 10 µM
How it was run: as §1

Palbociclib = compound: CC(=O)c1c(C)c2cnc(Nc3ccc(N4CCNCC4)cn3)nc2n(C2CCCC2)c1=O [Palbociclib]; settings: max 10 µM
How it was run: as §1

AZD0156 = compound: CN(C)CCCOc1ccc(-c2ccc3ncc4c(c3c2)n(C2CCOCC2)c(=O)n4C)cn1 [AZD0156]; settings: max 3 µM
How it was run: as §1

AZD5991 = compound: Cc1c2c(nn1C)CSCc1cc(n(C)n1)CSc1cc(c3ccccc3c1)OCCCc1c(C(=O)O)n(C)c3c-2c(Cl)ccc13 [AZD5991]; settings: max 1 µM
How it was run: as §1

AZD7648 = compound: Cc1cc2ncnn2cc1Nc1ncc2c(n1)n(C1CCOCC1)c(=O)n2C [AZD7648]; settings: max 10 µM
How it was run: as §1

Olaparib = compound: O=C(c1cc(Cc2n[nH]c(=O)c3ccccc23)ccc1F)N1CCN(C(=O)C2CC2)CC1 [Olaparib]; settings: max 10 µM
How it was run: as §1

[1] = compound: O=C(Nc1ccc2[nH]nc(-c3ccncc3)c2c1)[C@@H]1CCN(CC(=O)N2CCN(c3ccc(-c4ncccn4)cc3)CC2)C1; settings: max 5 µM
How it was run: as §1

Gemcitabine = compound: Nc1ccn([C@@H]2O[C@H](CO)[C@@H](O)C2(F)F)c(=O)n1 [Gemcitabine]; settings: max 0.3 µM
How it was run: as §1

Savolitinib = compound: C[C@@H](c1ccc2nccn2c1)n1nnc2ncc(-c3cnn(C)c3)nc21 [Savolitinib]; settings: max 1 µM
How it was run: as §1

AZD5153 = compound: COc1nnc2ccc(N3CCC(c4ccc(OCCN5CCN(C)C(=O)[C@H]5C)cc4)CC3)nn12 [AZD5153]; settings: max 1 µM
How it was run: as §1

Selumetinib = compound: Cn1cnc2c(F)c(Nc3ccc(Br)cc3Cl)c(C(=O)NOCCO)cc21 [Selumetinib]; settings: max 10 µM
How it was run: as §1

SRA737 = compound: N#Cc1cnc(Nc2cc(NC[C@H]3CNCCO3)c(C(F)(F)F)cn2)cn1 [SRA737]; settings: max 10 µM
How it was run: as §1

Dasatinib = compound: CC1=C(C(=CC=C1)Cl)NC(=O)C2=CN=C(S2)NC3=CC(=NC(=N3)C)N4CCN(CC4)CCO [Dasatinib]; settings: max 2 µM
How it was run: as §1

Doxorubicin = compound: COc1cccc2c1C(=O)c1c(O)c3c(c(O)c1C2=O)C[C@@](O)(C(=O)CO)C[C@@H]3O[C@H]1C[C@H](N)[C@H](O)[C@H](C)O1 [Doxorubicin]; settings: max 1 µM
How it was run: as §1

Alisertib = compound: COc1cc(Nc2ncc3c(n2)-c2ccc(Cl)cc2C(c2c(F)cccc2OC)=NC3)ccc1C(=O)O [Alisertib]; settings: max 10 µM
How it was run: as §1

Etoposide = compound: COc1cc([C@@H]2c3cc4c(cc3[C@@H](O[C@@H]3O[C@@H]5CO[C@@H](C)O[C@H]5[C@H](O)[C@H]3O)[C@H]3COC(=O)[C@H]23)OCO4)cc(OC)c1O [Etoposide]; settings: max 10 µM
How it was run: as §1

AZD4320 = compound: CN(CC[C@H](CSC1=CC=CC=C1)NC2=C(C=C(C=C2)S(=O)(=O)NC(=O)C3=CC=C(C=C3)N4CCC(CC4)[C@H](C5=CC=CC=C5C6=CC=C(C=C6)Cl)O)S(=O)(=O)C(F)(F)F)CCO [AZD4320]; settings: max 1 µM
How it was run: as §1

Taselisib = compound: Cc1nc(-c2cn3c(n2)-c2ccc(-c4cnn(C(C)(C)C(N)=O)c4)cc2OCC3)n(C(C)C)n1 [Taselisib]; settings: max 10 µM
How it was run: as §1

SN-38 = compound: CCc1c2c(nc3ccc(O)cc13)-c1cc3c(c(=O)n1C2)COC(=O)[C@]3(O)CC [SN-38]; settings: max 0.3 µM
How it was run: as §1

Venetoclax = compound: CC1(C)CCC(CN2CCN(c3ccc(C(=O)NS(=O)(=O)c4ccc(NCC5CCOCC5)c([N+](=O)[O-])c4)c(Oc4cnc5[nH]ccc5c4)c3)CC2)=C(c2ccc(Cl)cc2)C1 [Venetoclax]; settings: max 1 µM
How it was run: as §1

AZD8186 = compound: C[C@@H](Nc1cc(F)cc(F)c1)c1cc(C(=O)N(C)C)cc2c(=O)cc(N3CCOCC3)oc12 [AZD8186]; settings: max 10 µM
How it was run: as §1

SG3199 = compound: CC1=CN2[C@@H](C1)C=NC3=CC(=C(C=C3C2=O)OC)OCCCCCOC4=C(C=C5C(=C4)N=C[C@@H]6CC(=CN6C5=O)C)OC [SG3199]; settings: max 0.001 µM
How it was run: as §1

5-Fluorouracil = compound: O=c1[nH]cc(F)c(=O)[nH]1 [5-Fluorouracil]; settings: max 20 µM
How it was run: as §1

Trametinib = compound: CC(=O)Nc1cccc(-n2c(=O)n(C3CC3)c(=O)c3c(Nc4ccc(I)cc4F)n(C)c(=O)c(C)c32)c1 [Trametinib]; settings: max 1 µM
How it was run: as §1

Prexasertib = compound: COc1cccc(OCCCN)c1-c1cc(Nc2cnc(C#N)cn2)n[nH]1 [Prexasertib]; settings: max 1 µM
How it was run: as §1

AZD2811 = compound: CCN(CCO)CCCOc1ccc2c(Nc3cc(CC(=O)Nc4cccc(F)c4)[nH]n3)ncnc2c1 [AZD2811]; settings: max 1 µM
How it was run: as §1

Paclitaxel = compound: CC(=O)O[C@H]1C(=O)[C@@]2(C)[C@H]([C@H](OC(=O)c3ccccc3)[C@]3(O)C[C@H](OC(=O)[C@H](O)[C@@H](NC(=O)c4ccccc4)c4ccccc4)C(C)=C1C3(C)C)[C@]1(OC(C)=O)CO[C@@H]1C[C@@H]2O [Paclitaxel]; settings: max 3 µM
How it was run: as §1

MK-2206 = compound: NC1(c2ccc(-c3nc4ccn5c(=O)[nH]nc5c4cc3-c3ccccc3)cc2)CCC1 [MK-2206]; settings: max 10 µM
How it was run: as §1

AZD1775 = compound: C=CCn1c(=O)c2cnc(Nc3ccc(N4CCN(C)CC4)cc3)nc2n1-c1cccc(C(C)(C)O)n1 [AZD1775]; settings: max 3 µM
How it was run: as §1

Carboplatin = compound: C1CC(C1)(C(=O)[O-])C(=O)[O-].N.N.[Pt+2] [Carboplatin]; settings: max 10 µM
How it was run: as §1

| Cell Line | IC50, cell viability 72 h (Crizotinib) [nM] | IC50, cell viability 72 h (Lapatinib) [nM] | IC50, cell viability 72 h (AZD1390) [nM] | IC50, cell viability 72 h (Gefitinib) [nM] | IC50, cell viability 72 h (AZD6738) [nM] | IC50, cell viability 72 h (AZD5363) [nM] | IC50, cell viability 72 h (Palbociclib) [nM] | IC50, cell viability 72 h (AZD0156) [nM] | IC50, cell viability 72 h (AZD5991) [nM] | IC50, cell viability 72 h (AZD7648) [nM] | IC50, cell viability 72 h (Olaparib) [nM] | IC50, cell viability 72 h [1] [nM] | IC50, cell viability 72 h (Gemcitabine) [nM] | IC50, cell viability 72 h (Savolitinib) [nM] | IC50, cell viability 72 h (AZD5153) [nM] | IC50, cell viability 72 h (Selumetinib) [nM] | IC50, cell viability 72 h (SRA737) [nM] | IC50, cell viability 72 h (Dasatinib) [nM] | IC50, cell viability 72 h (Doxorubicin) [nM] | IC50, cell viability 72 h (Alisertib) [nM] | IC50, cell viability 72 h (Etoposide) [nM] | IC50, cell viability 72 h (AZD4320) [nM] | IC50, cell viability 72 h (Taselisib) [nM] | IC50, cell viability 72 h (SN-38) [nM] | IC50, cell viability 72 h (Venetoclax) [nM] | IC50, cell viability 72 h (AZD8186) [nM] | IC50, cell viability 72 h (SG3199) [nM] | IC50, cell viability 72 h (5-Fluorouracil) [nM] | IC50, cell viability 72 h (Trametinib) [nM] | IC50, cell viability 72 h (Prexasertib) [nM] | IC50, cell viability 72 h (AZD2811) [nM] | IC50, cell viability 72 h (Paclitaxel) [nM] | IC50, cell viability 72 h (MK-2206) [nM] | IC50, cell viability 72 h (AZD1775) [nM] | IC50, cell viability 72 h (Carboplatin) [nM] |
| --- | --- | --- | --- | --- | --- | --- | --- | --- | --- | --- | --- | --- | --- | --- | --- | --- | --- | --- | --- | --- | --- | --- | --- | --- | --- | --- | --- | --- | --- | --- | --- | --- | --- | --- | --- |
| CCK-81 (Colorectal Carcinoma) | 8320 | 484 | > 300 | 997 | 1570 | > 10000 | > 10000 | > 3000 | 634 | > 10000 | > 10000 | 4810 | 50.3 | > 1000 | 160 | 9240 | 876 | > 2000 | > 1000 | > 10000 | > 10000 | > 1000 | 1180 | 76.7 | > 1000 | > 10000 | > 1 | 7320 | 208 | 10.7 | > 1000 | 101 | > 10000 | 661 | > 10000 |
| COLO-320-HSR (Colorectal Carcinoma) | > 10000 | > 10000 | > 300 | > 10000 | 7940 | > 10000 | > 10000 | > 3000 | 489 | > 10000 | > 10000 | > 5000 | 260 | > 1000 | > 1000 | > 10000 | > 10000 | > 2000 | > 1000 | > 10000 | > 10000 | > 1000 | > 10000 | > 300 | > 1000 | > 10000 | > 1 | > 20000 | > 1000 | 232 | > 1000 | 411 | > 10000 | 459 | > 10000 |
| ECC10 (Gastric Carcinoma) | 4920 | 6710 | > 300 | > 10000 | > 10000 | > 10000 | > 10000 | > 3000 | 713 | > 10000 | > 10000 | 375 | 50 | > 1000 | 139 | > 10000 | > 10000 | > 2000 | 131 | 200 | 1860 | 21.8 | > 10000 | 7.73 | 230 | > 10000 | > 1 | > 20000 | 237 | 324 | 25.2 | 10.9 | > 10000 | 1130 | > 10000 |
| IGR-37 (Melanoma) | > 10000 | > 10000 | > 300 | > 10000 | 5360 | > 10000 | > 10000 | > 3000 | > 1000 | > 10000 | > 10000 | 361 | 45.9 | > 1000 | 846 | 339 | 3480 | > 2000 | 746 | > 10000 | > 10000 | > 1000 | 4360 | 26.2 | > 1000 | > 10000 | > 1 | > 20000 | 3.42 | 12.9 | > 1000 | 86.5 | > 10000 | 846 | > 10000 |
| KARPAS-422 (B-Cell Non-Hodgkin's Lymphoma) | > 10000 | > 10000 | > 300 | > 10000 | 9320 | 3560 | 3050 | > 3000 | 206 | > 10000 | > 10000 | > 5000 | 92.2 | > 1000 | 144 | > 10000 | > 10000 | 1510 | 634 | > 10000 | 3440 | 230 | 4630 | 17 | 644 | 644 | > 1 | > 20000 | > 1000 | 17.6 | > 1000 | 957 | 1070 | 768 | > 10000 |
